Details: Liquid; for speed of sound: Pulse-echo method; for mass density: Vibrating tube method

CCCCC/C=C\C/C=C\CCCCCCCC(=O)OC [methyl (Z,Z)-9,12-octadecadienate]
Details	mass density, 293.15 K [kg/m3]	mass density, 303.15 K [kg/m3]	mass density, 313.15 K [kg/m3]	mass density, 323.15 K [kg/m3]	mass density, 333.15 K [kg/m3]	mass density, 343.15 K [kg/m3]	speed of sound, 283.15 K [m/s]	speed of sound, 303.15 K [m/s]	speed of sound, 323.15 K [m/s]	speed of sound, 343.15 K [m/s]
101.3 kPa	885.2	877.7	870.9	863.7	856.3	849.1	1455	1382.9	1312.6	1245.1
10000 kPa	891.2	884	877.1	870.1	863	856.2	1498.2	1428.9	1361.4	1297.9
20000 kPa	896.6	889.6	882.9	876.3	869.5	863	1539	1472.2	1407.2	1346.9
30000 kPa	901.8	895	888.5	882	875.4	869.3	1577.6	1513.6	1450.8	1392.6
40000 kPa	906.8	900.1	893.7	887.3	881.3	875.1	1614.3	1552	1491.3	1435.4
50000 kPa	911.4	905	898.8	892.4	886.5	880.8	1649.2	1588.6	1530.3	1475.1
60000 kPa	915.9	909.5	903.3	897.4	891.5	885.9	1682.6	1623.5	1567.2	1513.2
70000 kPa	920.2	914	908	902.1	896.4	890.9	1714	1656.3	1601.4	1549.4
80000 kPa	924	918.1	912.2	906.7	900.9	–	1745.2	1688.3	1634.3	–
90000 kPa	928.2	922.2	916.6	910.9	905.4	–	1774.4	1719.1	1666.2	–
100000 kPa	931.3	926.2	920.6	915.1	910	–	1803.2	1748.7	1697.2	–
110000 kPa	–	–	–	–	–	–	1830.9	1776.9	1726.4	–
120000 kPa	–	–	–	–	–	–	1857.8	1804.4	1754.6	–
130000 kPa	–	–	–	–	–	–	1884.6	1831.3	1782.4	–
140000 kPa	–	–	–	–	–	–	1909.9	1857	1808.7	–
150000 kPa	–	–	–	–	–	–	1934.7	1883.6	1834.7	–
170000 kPa	–	–	–	–	–	–	–	1932.3	1884.5	–
190000 kPa	–	–	–	–	–	–	–	1979.7	1931.7	–
210000 kPa	–	–	–	–	–	–	–	2023.6	1977.6	–
